From patent EP0109340A2, “Acid salts of 2-piperazinopyrimidine, process for their preparation and pharmaceutical compositions containing them” (priority 1982, dated 1984)

Legend:
[1] = tested on: comportement de rotation chez la souris après lésion unilatérale du striatum; assay: rotation behaviour after unilateral 6-hydroxydopamine lesion of the striatum (dopaminergic mechanism); type: in vivo, souris femelles Charles River CD1; conditions: oral, dose corresponding to 0,15 mg/kg free base; for activité dans le temps (rotations): course over 1, 3 and 6 h; for activité dans le temps (rotations) / somme algébrique des rotations ipsilatérales et contralatérales à la lésion: result in words; for somme algébrique des rotations ipsilatérales et contralatérales à la lésion: versus controls
From the text: Le mécanisme dopaminergique d'un composé représentatif de l'invention, la 2-(1-pipérazinyl)pyrimidine mcno-L (+) - tartrate, a été étudié en comparaison avec la base libre correspondante et son chlorhydrate par l'analyse du comportement de rotation chez la souris après lésion unilatérale du striatum (P. Protais et al. J. Pharmacol. 1976, 7, 251).
Des souris femelles Charles River CD1 pesant de 20 à 24 g ont préalablement fait l'objet d'une lésion unilatérale du striatum par injection stéréotaxique de 6-hydroxydopamine à raison de 8 mcg par animal. Une semaine après cette opération, la 2-(1-pipérazinyl)pyrimidine mono-L(+)-tartrate, la 2-(l-pipérazinyl)pyrimidine chlorhydrate et la base libre ont été administrées par voie orale à des groupes de 6 souris à une dose correspondant à 0,15 mg/kg de base libre. Le nombre de rotations à été évalué, pendant 2 minutes, 1, 3 et 6 heures après l'administration des trois produits. Les rotations ipsilatérales à la lésion ont été comptées positivement, celles contralatérales ont été comptées négativement. La somme algébrique des rotations pour chaque groupe d'animaux traités a été comparée à celle du groupe d'animaux témoins n'ayant reçu que le véhicule (sérum physiologique).
Le Tableau IV ci-dessous montre la variation pour cent, par rapport aux animaux témoins, des rotations.

[2] = tested on: toxicité de groupe due à l'amphétamine; assay: antagonism of amphetamine group toxicity (predictive of antipsychotic action); type: in vivo, souris Charles Fiver CD1; conditions: Mus musculus, ip; median effective dose against mortality due to amphetamine 30 mg/kg i.p.; compound i.p. 30 min before; mortality over 24 h; confidence limits 10,1 - 26,7; read-out: DE50 (limites de confiance)
From the text: L'activité antipsychotique d'un composé représentatif, le monomaléate de 2-(1-pipérazinyl)pyrimidine, a été déterminée dans le test de l'antagonisme de la toxicité de groupe due à l'amphétamine (J.H. Burn et al., Arch. Int. Pharmacodyn. Ther. 1958, 113, 290).
Le monomaléate de 2-(1-pipérazinyl)pyrimidine a Été administré à des doses croissantes par voie intrapéritonéale à des lots de 10 souris Charles Fiver CD1 pesant 20-22 g et groupées dans des cages de 22 cm de long, 12 cm de large et 12 cm de haute. Trente minutes après l'administration, on a injecté par voie intrapéritonéale de l'amphétamine à la dose de 30 mg/kg. La mortalité des animaux a été évaluée durant les 24 h qui ont suivi l'injection d'amphétamine et comparée, dans chaque groupe, à celle du groupe d'animaux témoins n'ayant reçu que le véhicule (sérum ghysiologigue).
Le tableau ci-dessous montre la dose efficace médiane (DE5G) d'antagonisme de la mortalité due à l'amphétamine.

[3] = tested on: catalepsie provoquée par la prochlorpérazine; assay: antagonism of the onset of prochlorperazine-induced catalepsy (cork test, predictive of antidepressant activity); type: in vivo, rats mâles Wistar; conditions: 1 h before prochlorperazine 10 mg/kg s.c., read 5 h later
From the text: L'activité antidépressive des composés de l'invention a été évaluée dans le test de l'antagonisme vis-à-vis de l'installation de la catalepsie provoquée par la prochlorpérazine (K. Eizière et al., Arzneimittel Forschung, 1982, 32 (II), 824).
Un composé représentatif de l'invention, à savoir le monomaléate de 2-(1-pipérazinyl)pyrimidine, a été administré par voie intrapéritonéale à des groupes de 10 rats mâles Wistar pesant 220-240 g; des animaux de contrôle ont été en même temps traités par du sérum physiologique. Une heure après, les animaux ont reçu, par voie sous-cutanée, de la prochlcrpérazine à une dose de 10 mg/kg. Cinq heures après cette administration, le nombre d'animaux cataleptiques a été estimé par le test du bouchon. Ce test consiste à positionner les animaux de telle sorte qu'ils puissent maintenir pendant au moins 20 seconds leurs pattes en appui sur une colonne formée de trois bouchons de liège superposés (hauteur totale 11 cm). Les performances réalisées pour chaque groupe d'animaux ont été comparées à celles du groupe d'animaux témoins n'ayant reçu que le véhicule et la prcchlorpérazine.
Le tableau ci-dessous montre le pourcentage d'antagonisme de l'installation de la catalepsie provoquée par la prochlorpérazine.

[4] = free base, tested within a series of compounds; literature; cited from earlier work

SMILES | activité dans le temps (rotations) [1] | somme algébrique des rotations ipsilatérales et contralatérales à la lésion [1] | variation négative (variation pour cent des rotations par rapport aux animaux témoins) ([1]; 6th hour) [%] | ED50 [2] [mg/kg] | % d'antagonisme ([3]; dose 0,1 mg/kg i.p.) [%] | % d'antagonisme ([3]; dose 1 mg/kg i.p.) [%] | activité analgésique ou antifilariale [4]
c1cnc(N2CCNCC2)nc1 [chlorhydrate, 2-(l-pipérazinyl)pyrimidine chlorhydrate] | inactif aussi dans le temps | n'a pas d'effet significatif | – | – | – | – | –
c1cnc(N2CCNCC2)nc1 [2-(1-pipérazinyl)pyrimidine monc-L(+)-tartrate] [mono-L(+)-tartratede 2-(1-pipérazinyl)pyrimidine] | son activité augmente significativement dans le temps | – | > 100 | – | – | – | –
c1cnc(N2CCNCC2)nc1 [2-(1-pipérazinyl)pyrimidine monomaléate, monomaléatede 2-(l-pipérazinyl)pyrimidine] | – | – | – | 16.5 | 20 | 80 | –
c1cnc(N2CCNCC2)nc1 [base libre, 2-(1-pipérazinyl)pyrimidine] | tendence à la diminution de l'activité dans le temps | réduit d'une façon significative | – | – | – | – | aucun n'a montré d'activité analgésique ou antifilariale
